# Laboratory results published in patent publication US10716778B2, “Use of compounds that are able to increase the serum IGF-1 level for the preparation of a therapeutical composition for treatment of various disease states associated with a reduced IGF-1 serum level in humans and animals” (VEIJLEN N.V., priority 2003, dated 2020).
# “And” between values parts separate entries of the source, which are not always exact repeats. Identical values can stand only once.
# Tests used:
# Assay type in all cases: in vivo, human
# HbA1c = HbA1c in type 2 diabetic patients during medication with IAA (Example 4); conditions: for HbA1c: acetic acid
# From the text: (§1) Five male type 2 diabetic patients took part in the study. They were all very difficult to regulate. When the study started, the average HbA1c was to be approximately 9.0%. The patients had no other clinical problems. In addition, the IgF-BP3/IgF-1 ratio had to be over 10. The age of the subjects were between 45 years and 75 years with an average of 58. The period of the investigation was 6 months. At the start of the study, after 2 month, 4 months and at the end at 6 months, blood was taken. The following parameters were checked: IGF-1 and IGF-PB-3. Also, at the start, safety parameters (liver tests, hematology) were determined. Every 8 weeks, HbA1c was determined.
# (§2) All samples from one subject were analyzed in the same run to avoid intra-assay variability. Quantification of IGF-1 was performed using an immunoradiometric assay (IRMA) (DSL-5600 ACTIVE™, DSL, Germany GmbH, Germany). Intra- and inter-assay variance was: 4.0% and 9.2% and 1.5% for IGF-1. The Hba1c was analyzed on HPLC Menarine HA 81-60.
# (§3) The total work output of every subject was calculated with a 2-way ANOVA for repeated measures and the hormone values were analyzed with the Wilcoxon test. In all cases, a p value of <0.05 was accepted as significant.
# IGF-1 = assay: IgF-1 level in type 2 diabetic patients during medication with IAA (Example 4)
# From the text: as §1, with “At the start of the study, after 2 month, 4 months and at the end at 6 months, blood was taken.” left out
# as §2, §3
# IgF-BP3/IgF-1 = assay: Ratio IgF-BP3/IgF-1 in type 2 diabetic patients during medication with IAA (Example 4); conditions: for Ratio IgF-BP3/IgF-1: acetic acid
# From the text: as §1, with “At the start of the study, after 2 month, 4 months and at the end at 6 months, blood was taken.” left out
# as §2, §3
substance,measurement,setting,value
indole acetic acid [IAA],"HbA1c, average","HbA1c; Week 0 (start), average of 5 subjects",9.0%
same,HbA1c,"HbA1c; Week 0 (start), individual subjects",9.6% and 9.0% and 9.1% and 8.6% and 8.8%
same,"HbA1c, average","HbA1c; Week 8, average of 5 subjects",8.3%
same,HbA1c,"HbA1c; Week 8, individual subjects",8.9% and 8.2% and 8.3% (2×) and 7.6%
same,"HbA1c, average","HbA1c; Week 16, average of 5 subjects",7.4%
same,HbA1c,"HbA1c; Week 16, individual subjects",8.0% and 7.1% and 7.4% and 6.9% and 7.6%
same,"HbA1c, average","HbA1c; Week 24, average of 5 subjects",6.7%
same,HbA1c,"HbA1c; Week 24, individual subjects",7.4% and 6.4% and 6.6% and 6.3% and 6.8%
same,"IgF-1 level, average","IGF-1; Month 0 (start), average of 5 subjects, acetic acid",10.8 nmol/L and 10.7 nmol/L
same,IgF-1 level,"IGF-1; Month 0 (start), individual subjects, acetic acid",11.1 nmol/L and 9.6 nmol/L and 10.4 nmol/L and 11.2 nmol/L and 11.3 nmol/L
same,"IgF-1 level, average","IGF-1; Month 1, average of 5 subjects",11.4 nmol/L
same,IgF-1 level,"IGF-1; Month 1, individual subjects, acetic acid",12.5 nmol/L and 10.1 nmol/L and 10.8 nmol/L and 11.6 nmol/L and 12.0 nmol/L
same,"IgF-1 level, average","IGF-1; Month 2, average of 5 subjects",12.0 nmol/L
same,IgF-1 level,"IGF-1; Month 2, individual subjects, acetic acid",13.1 nmol/L and 10.6 nmol/L and 11.6 nmol/L and 11.9 nmol/L and 12.6 nmol/L
same,"IgF-1 level, average","IGF-1; Month 3, average of 5 subjects",12.5 nmol/L
same,IgF-1 level,"IGF-1; Month 3, individual subjects, acetic acid",13.8 nmol/L and 11.1 nmol/L and 12.1 nmol/L and 12.3 nmol/L and 13.0 nmol/L
same,"IgF-1 level, average","IGF-1; Month 4, average of 5 subjects",13.0 nmol/L
same,IgF-1 level,"IGF-1; Month 4, individual subjects, acetic acid",14.3 nmol/L and 11.8 nmol/L and 12.6 nmol/L and 12.8 nmol/L and 13.5 nmol/L
same,"IgF-1 level, average","IGF-1; Month 5, average of 5 subjects",13.5 nmol/L
same,IgF-1 level,"IGF-1; Month 5, individual subjects, acetic acid",14.9 nmol/l and 12.1 nmol/l and 13.3 nmol/l (2×) and 13.9 nmol/l
same,"IgF-1 level, average","IGF-1; Month 6, average of 5 subjects",14.1 nmol/L
same,IgF-1 level,"IGF-1; Month 6, individual subjects, acetic acid",15.2 nmol/L and 12.9 nmol/L and 13.9 nmol/L and 14.4 nmol/L and 14.3 nmol/L
same,"Ratio IgF-BP3/IgF-1, average","IgF-BP3/IgF-1; Month 0 (start), average of 5 subjects",10.6
same,Ratio IgF-BP3/IgF-1,"IgF-BP3/IgF-1; Month 0 (start), individual subjects",10.2 and 10.6 and 10.8 and 11.3 and 10.0
same,"Ratio IgF-BP3/IgF-1, average","IgF-BP3/IgF-1; Month 1, average of 5 subjects",9.9
same,Ratio IgF-BP3/IgF-1,"IgF-BP3/IgF-1; Month 1, individual subjects",9.7 and 10.1 and 9.9 and 10.8 and 8.9
same,"Ratio IgF-BP3/IgF-1, average","IgF-BP3/IgF-1; Month 2, average of 5 subjects",8.9
same,Ratio IgF-BP3/IgF-1,"IgF-BP3/IgF-1; Month 2, individual subjects",9.0 and 8.6 and 9.4 and 9.2 and 8.5
same,"Ratio IgF-BP3/IgF-1, average","IgF-BP3/IgF-1; Month 3, average of 5 subjects",8.5
same,Ratio IgF-BP3/IgF-1,"IgF-BP3/IgF-1; Month 3, individual subjects",8.6 and 8.3 and 8.9 and 8.8 and 8.1
same,"Ratio IgF-BP3/IgF-1, average","IgF-BP3/IgF-1; Month 4, average of 5 subjects",7.9
same,Ratio IgF-BP3/IgF-1,"IgF-BP3/IgF-1; Month 4, individual subjects",8.0 and 7.6 (2×) and 8.3 and 7.8
same,"Ratio IgF-BP3/IgF-1, average","IgF-BP3/IgF-1; Month 5, average of 5 subjects",7.2
same,Ratio IgF-BP3/IgF-1,"IgF-BP3/IgF-1; Month 5, individual subjects",7.2 (2×) and 6.8 and 7.6 and 7.3
same,"Ratio IgF-BP3/IgF-1, average","IgF-BP3/IgF-1; Month 6, average of 5 subjects",6.8
same,Ratio IgF-BP3/IgF-1,"IgF-BP3/IgF-1; Month 6, individual subjects",6.6 and 6.3 and 7.2 and 6.9 (2×)
